Assay results published in patent US11648239B2, “Azophenols as ERG oncogene inhibitors” (The Henry M. Jackson Foundation for the Advancement of …, priority 2015, dated 2023).

Columns and labels:
[1] = target: T1, ERG protein (Homo sapiens, UniProt P11308); assay: Inhibition of ERG protein in VCaP cells (Western blot); type: cell-based; conditions: for IC50: metastatic prostate cancer, TMPRSS2-ERG fusion, N/D = assay performed, inhibition not detected at the tested levels
T1 construct: host or cells: VCaP
T1 sequence (P11308 33-479 limits assumed): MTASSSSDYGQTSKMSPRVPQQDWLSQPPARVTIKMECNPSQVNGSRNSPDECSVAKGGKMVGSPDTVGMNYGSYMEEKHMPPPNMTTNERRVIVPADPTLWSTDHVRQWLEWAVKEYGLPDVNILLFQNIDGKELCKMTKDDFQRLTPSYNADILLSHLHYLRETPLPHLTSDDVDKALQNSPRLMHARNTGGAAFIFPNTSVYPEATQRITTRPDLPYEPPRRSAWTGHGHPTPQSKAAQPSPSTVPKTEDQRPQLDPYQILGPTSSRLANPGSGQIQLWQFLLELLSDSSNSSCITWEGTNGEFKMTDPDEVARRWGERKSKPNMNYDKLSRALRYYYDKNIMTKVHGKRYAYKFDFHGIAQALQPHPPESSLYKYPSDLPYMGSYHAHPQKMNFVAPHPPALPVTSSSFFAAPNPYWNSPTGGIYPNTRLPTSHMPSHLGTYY
Method: The TMPRSS2-ERG fusion positive prostate cancer cell line, VCaP (ATCC), was used to identify the test compound inhibitors of ERG expression. Cells were grown in medium using conditions prescribed by the vendor. VCaP cells in logarithmic growth were seeded in a tissue culture dish at a cell density of 2×10^6 cells per plate. Following 48 hours incubation at 37° C., cells were exposed for a period of 48 hours with 0, 0.05, 0.25 and 0.5 μM concentrations of each test azophenol compound. The inhibition of ERG expression was evaluated by an In-cell Western blot assay (LI-COR Biosciences, Lincoln, Nebr.) using the ERG specific CPDR ERG-MAb as further described below.
(§1) Inhibition of ERG protein expression by the test compounds were determined by Western blot analysis. The ERG specific monoclonal antibody CPDR ERG-MAb was used as the primary antibody. In brief, Western blot was performed by running a fixed amount of total protein extracted from cell lysates of the treated cells using (4-12% Bis-Tris) gel by electrophoresis, followed by transfer to membrane and incubation with primary antibody and continued with HRP-conjugated secondary antibody. Cultured cells were treated at specific dosages with each of the tested ERG inhibitors. Following incubation of the treated cells for an indicated time period, cells were lysed using Mammalian Protein Extraction Reagent (M-PER; Pierce, Rockford, Ill.) containing a protease inhibitor cocktail and phosphatase inhibitor cocktails I & III (Sigma, St Louis, Mo.). Cell lysates containing 50 μg of total protein were electrophoresed through 4-12% Bis-Tris Gel (Invitrogen, Carlsbad, Calif.) and the cellular proteins were transferred to PVDF membrane (Invitrogen, Carlsbad, Calif.). Membranes were incubated at 4° C. for 12 hours with primary antibodies for AR, PSA, GAPDH, α-Tubulin, apoptosis markers and cell cycle regulators. Following exposure to primary antibodies, the membranes were washed with buffer (3×, 5 minutes each at room temperature) followed by incubation with relevant secondary antibodies for 1 hour at 24° C. Finally, the membranes were washed with buffer and developed using the ECL Western blot detection reagent (GE Health Care, Buckinghamshire, UK). The ERG protein expression of the test azophenol compounds were normalized with GAPDH.
In brief, ERG positive VCaP cells in loganthmic growth phase were plated in 10 cm tissue culture dish at a cell density of 2×10^6 cells per dish. The plated cells were treated with 0, 0.2, 0.4, 0.6, 0.8 and 1 μM concentrations of each azophenol compound for a period of 48 hours. Cells from each dish were then processed for Western blot analysis and alterations in the expression of ERG protein were monitored. Both ERG and GAPDH protein band were quantified from each concentration using Image J (NIH) and ERG band density was normalized with corresponding GAPDH protein control. Relative density of ERG in each concentration was calculated and with Graphpad Prism 6 software, the IC50 of each compound was calculated.

[2] = tested on: VCaP cells; assay: VCaP cell growth inhibition; type: cell-based; conditions: for IC50: metastatic prostate cancer, TMPRSS2-ERG fusion, N/D = assay performed, inhibition not detected at the tested levels
Method: (§2) Approximately 48 hours following plating of cells, the appropriate test compound is added to each well of the tissue culture dish at a predetermined concentration. The medium was replenished every 24 hours with fresh growth medium containing the same concentration of the same test compound for indicated period of the cell growth inhibition assay. Percent cell growth inhibition was calculated using a hemocytometer for estimating cell density in each of the test wells of the tissue culture dish and trypan blue dye exclusion microscopy and photography to estimate the fraction of viable cells in each test well.
To investigate whether the azophenol compounds selectively arrested the growth of ERG positive cancer cells (VCaP), VCaP cells were cultured to achieve cells in logarithmic growth and these cells were then plated in 6 well tissue culture dishes in duplicates at a cell density of 0.2×10^6 cells per well. The plated cells were exposed to 0, 0.2, 0.4, 0.6, 0.8 and 1 μM concentrations of each compound for a period of 8 days. At the end of time period, cells were recovered from the test plate, washed, trypsinized and the cell density of viable cells were determined with trypan blue dye staining method and automated cell counter Bio-Rad TC10. The IC50 of cell growth inhibition of each compound was determined by trypsinizing the cells at the end of the experiment and counting the cells by using the automated cell counter (Bio-Rad TC10 automated cell counter). The average cell numbers of each concentration were used to calculate the IC50 of each compound with the GraphPad Prism 6 software.

[3] = tested on: AR; assay: Inhibition of endogenous AR protein in VCaP cells (Western blot); type: cell-based; conditions: 0.25 μM and 1 μM, FIG. 2
Method: as §1, with “Following exposure to primary antibodies, the membranes were washed with buffer (3×, 5 minutes each at room temperature) followed by incubation with relevant secondary antibodies for 1 hour at 24° C. Finally, the membranes were washed with buffer and developed using the ECL Western blot detection reagent (GE Health Care, Buckinghamshire, UK). The ERG protein expression of the test azophenol compounds were normalized with GAPDH.” left out

[4] = tested on: PSA; assay: Inhibition of endogenous PSA protein in VCaP cells (Western blot); type: cell-based; conditions: 0.25 μM and 1 μM, FIG. 2
Method: as §1, with “Following exposure to primary antibodies, the membranes were washed with buffer (3×, 5 minutes each at room temperature) followed by incubation with relevant secondary antibodies for 1 hour at 24° C. Finally, the membranes were washed with buffer and developed using the ECL Western blot detection reagent (GE Health Care, Buckinghamshire, UK). The ERG protein expression of the test azophenol compounds were normalized with GAPDH.” left out

[5] = tested on: AR; assay: Inhibition of endogenous AR protein in LNCaP cells (Western blot); type: cell-based; conditions: ERG negative LNCaP; 0.25 μM and 1 μM; FIG. 4
Method: (§3) To investigate whether the azophenol compounds of the invention are selective inhibitors of ERG protein expression, representative azophenol compounds were further tested for its ability to inhibit AR and PSA activity in the following AR positive/ERG negative prostate cancer cell lines: LNCaP (mutant AR positive and ERG negative), as well as in LAPC4 cells that are AR (wild type) positive and ERG negative.
(§4) Inhibition of ERG protein expression by the test compounds were determined by Western blot analysis. The ERG specific monoclonal antibody CPDR ERG-MAb was used as the primary antibody. In brief, Western blot was performed by running a fixed amount of total protein extracted from cell lysates of the treated cells using (4-12% Bis-Tris) gel by electrophoresis, followed by transfer to membrane and incubation with primary antibody and continued with HRP-conjugated secondary antibody. Cultured cells were treated at specific dosages with each of the tested ERG inhibitors. Following incubation of the treated cells for an indicated time period, cells were lysed using Mammalian Protein Extraction Reagent (M-PER; Pierce, Rockford, Ill.) containing a protease inhibitor cocktail and phosphatase inhibitor cocktails I & III (Sigma, St Louis, Mo.). […]

[6] = tested on: PSA; assay: Inhibition of endogenous PSA protein in LNCaP cells (Western blot); type: cell-based; conditions: ERG negative LNCaP; 0.25 μM and 1 μM; FIG. 4
Method: as §3, §4

[7] = tested on: LNCaP cells; assay: LNCaP cell growth; type: cell-based; conditions: 0.25 μM and 1 μM, FIG. 5
Method: as §2

[8] = tested on: AR; assay: Inhibition of endogenous AR protein in LAPC-4 cells (Western blot); type: cell-based; conditions: ERG negative LAPC-4; 0.25 μM and 1 μM; FIG. 6
Method: as §3, §4

[9] = tested on: LAPC-4 cells; assay: LAPC-4 cell growth; type: cell-based; conditions: 0.25 μM and 1 μM, FIG. 7
Method: as §2

[10] = target: T2, RIOK2 protein (Homo sapiens, UniProt Q9BVS4); assay: Inhibition of endogenous RIOK2 protein in COLO320 cells (Western blot); type: cell-based; conditions: 0.25 μM and 1 μM, FIG. 8
[11] = tested on: COLO320 cells; assay: COLO320 cell growth; type: cell-based; conditions: 0.25 μM and 1 μM, FIG. 9
Method: as §2

[12] = target: T3, ERG protein (Homo sapiens, UniProt P11308); assay: Inhibition of ERG protein in HUVEC normal endothelial cells (Western blot); type: cell-based; conditions: 0.25 μM and 1 μM, FIG. 10
T3 sequence (P11308 1-479): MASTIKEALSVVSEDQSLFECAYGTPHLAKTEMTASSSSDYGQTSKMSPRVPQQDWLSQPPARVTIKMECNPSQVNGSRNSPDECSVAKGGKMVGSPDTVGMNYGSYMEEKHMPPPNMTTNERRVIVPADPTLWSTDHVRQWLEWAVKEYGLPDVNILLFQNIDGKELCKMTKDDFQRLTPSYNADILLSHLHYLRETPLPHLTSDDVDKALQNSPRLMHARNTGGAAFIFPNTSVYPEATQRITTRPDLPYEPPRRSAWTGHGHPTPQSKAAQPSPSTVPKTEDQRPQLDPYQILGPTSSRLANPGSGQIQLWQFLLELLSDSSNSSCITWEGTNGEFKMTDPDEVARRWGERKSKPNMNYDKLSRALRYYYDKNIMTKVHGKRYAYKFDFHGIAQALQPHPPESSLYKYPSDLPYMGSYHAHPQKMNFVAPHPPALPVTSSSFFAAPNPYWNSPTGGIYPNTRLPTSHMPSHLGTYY
Method: as §1, with “Following exposure to primary antibodies, the membranes were washed with buffer (3×, 5 minutes each at room temperature) followed by incubation with relevant secondary antibodies for 1 hour at 24° C. Finally, the membranes were washed with buffer and developed using the ECL Western blot detection reagent (GE Health Care, Buckinghamshire, UK). The ERG protein expression of the test azophenol compounds were normalized with GAPDH.” left out

[13] = tested on: HUVEC; assay: HUVEC cell growth; type: cell-based, human; conditions: 0.25 μM and 1 μM, FIG. 11
Method: as §2

[14] = tested on: BPH-1 cells; assay: BPH-1 cell growth; type: cell-based; conditions: 0.25 μM and 1 μM, FIG. 12
Method: as §2

[15] = tested on: RWPE-1 cells; assay: RWPE-1 cell growth; type: cell-based; conditions: 0.25 μM and 1 μM, FIG. 12
Method: as §2

[16] = target: T2, RIOK2 protein; assay: Inhibition of RIOK2 protein in VCaP cells (Western blot); type: cell-based; parameters: host or cells: VCaP; conditions: 0.1, 0.2, 0.4, 0.6, 0.8 and 1 μM; FIG. 14, 17
[17] = target: T3, ERG protein; assay: Inhibition of endogenous ERG protein in COLO320 cells (Western blot); type: cell-based; parameters: host or cells: COLO320; conditions: 0.25 μM and 1 μM, FIG. 8
Method: as §1, with “Following exposure to primary antibodies, the membranes were washed with buffer (3×, 5 minutes each at room temperature) followed by incubation with relevant secondary antibodies for 1 hour at 24° C. Finally, the membranes were washed with buffer and developed using the ECL Western blot detection reagent (GE Health Care, Buckinghamshire, UK). The ERG protein expression of the test azophenol compounds were normalized with GAPDH.” left out

[18] = target: T2, RIOK2 protein; assay: Inhibition of RIOK2 protein in HUVEC normal endothelial cells (Western blot); type: cell-based; parameters: ERG and RIOK2 proteins in endogenous ERG expressing normal endothelial cells (HUVEC); host or cells: HUVEC; conditions: 0.25 μM and 1 μM, FIG. 10
[19] = 0.2, 0.4, 0.6, 0.8 and 1 μM, FIG. 19-22, 24
[20] = 0.3, 0.6, 1.0, 3.0 and 10.0 μM, FIG. 25-30

T2 sequence (Q9BVS4 whole entry): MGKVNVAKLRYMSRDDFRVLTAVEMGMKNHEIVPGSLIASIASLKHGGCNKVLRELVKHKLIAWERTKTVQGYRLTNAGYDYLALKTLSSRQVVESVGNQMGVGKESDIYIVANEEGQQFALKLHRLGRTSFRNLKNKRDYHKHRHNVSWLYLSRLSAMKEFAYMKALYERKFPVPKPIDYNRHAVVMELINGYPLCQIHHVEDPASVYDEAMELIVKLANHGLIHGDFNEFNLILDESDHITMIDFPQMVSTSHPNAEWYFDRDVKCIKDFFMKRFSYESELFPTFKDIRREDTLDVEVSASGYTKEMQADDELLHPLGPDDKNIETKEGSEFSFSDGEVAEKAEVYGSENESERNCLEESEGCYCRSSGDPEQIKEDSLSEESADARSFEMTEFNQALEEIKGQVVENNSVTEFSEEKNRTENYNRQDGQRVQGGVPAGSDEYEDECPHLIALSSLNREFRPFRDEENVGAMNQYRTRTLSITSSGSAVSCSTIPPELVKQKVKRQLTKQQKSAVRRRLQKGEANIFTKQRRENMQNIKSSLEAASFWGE

CN(C)c1ccc(N=Nc2ccccn2)c(O)c1 [Compound 6]
IC50 ([1]; VCaP): 273 nM
inhibition of VCaP cell growth ([2]; 0.02, 0.05, 0.10, 0.20 and 0.40 μM, FIG. 23): inhibition
inhibition of VCaP cell growth [2, 19]: inhibition
IC50 ([2]; VCaP): 73.9 nM

Oc1ccc(N=Nc2ccccn2)c(O)c1 [Compound 5]
IC50 ([1]; VCaP): 542 nM
inhibition of VCaP cell growth [2, 19]: inhibition
inhibition of VCaP cell growth [2, 20]: inhibition
IC50 ([2]; VCaP): 557 nM

Cc1ccc(O)c(N=Nc2nccs2)c1 [Compound 2]
inhibition of ERG protein in VCaP cells ([1]; 0.1, 0.2, 0.4, 0.6, 0.8 and 1 μM, FIG. 13, 16): inhibition
inhibition of endogenous ERG protein ([1]; VCaP, 0.25 μM and 1 μM, FIG. 2): inhibition
inhibition of VCaP cell growth ([2]; 0.1, 0.2, 0.4, 0.6, 0.8 and 1 μM, FIG. 15, 18): inhibition
inhibition of the growth of ERG harboring prostate cancer cells ([2]; VCaP, 0.25 μM and 1 μM, FIG. 3): inhibition
inhibition of endogenous AR protein [3]: inhibition
inhibition of endogenous PSA protein [4]: inhibition
inhibition of endogenous AR protein [5]: lack of inhibition
inhibition of endogenous PSA protein [6]: lack of inhibition
growth of ERG negative prostate cancer cells [7]: do not affect the growth
inhibition of endogenous AR protein [8]: do not inhibit
growth of ERG negative prostate cancer cells [9]: do not affect the growth
inhibition of endogenous RIOK2 protein [10]: inhibition
inhibition of growth of ERG harboring colon cancer cells [11]: inhibition
inhibition of ERG protein [12]: lack of inhibition
growth of ERG harboring normal endothelial cells [13]: do not affect the growth
growth of ERG negative prostate-derived immortalized cells [14]: do not affect the growth
growth of ERG negative prostate-derived immortalized cells [15]: do not affect the growth
inhibition of RIOK2 protein in VCaP cells [16]: inhibition
inhibition of endogenous ERG protein [17]: inhibition
inhibition of RIOK2 protein [18]: lack of inhibition

Cc1cc(N=Nc2nccs2)c(O)cc1O [Compound 3]
IC50 ([1]; VCaP): 1350 nM
inhibition of VCaP cell growth [2, 20]: inhibition
IC50 ([2]; VCaP): 4070 nM
